From patent US9822115B2, “Nitrogen containing compounds and their use as antibacterial agents” (WOCKHARDT LIMITED, priority 2014, dated 2017) come the findings set out here.

Each structure is given as a SMILES string. In brackets after ≈: the same amount, converted by molar mass. Like-named read-outs stand apart in the source and are kept apart here.

The test system of assay [1] is T1, Class C beta-lactamase, E. coli M50 (CMY/DHA).
T1 construct: no borders, tags or purification printed
Format: biochemical. Particulars: read-out: Beta-lactamase enzyme inhibition IC50. The method, then:
(§1) Determination of enzyme inhibition activity: Concentration of the inhibitor required to inhibit 50% of enzymatic activity was measured by adding a chromogenic substrate, Nitrocefin (100 uM, 5 min) to the preincubated mixture of crude enzyme and the agents (37° C., 10 min). Absorbance was measured at 485 nm by UV-spectrophotometer. The IC50 was calculated by plotting absorbance against concentration through Sigmoidal dose response curve using Graph Pad software.
(§2) The enzyme inhibition was expressed as IC50.

The subject of assay [2] is K. pneomoniae S48 (NDM, SHV, TEM). Briefly: Antibacterial activity, MIC by agar dilution (CLSI). Format: cell-based, K. pneumoniae. Particulars: Klebsiella pneumoniae. The protocol: (§3) The biological activity of representative compounds according to the invention against various bacterial strains was investigated. In a typical study, overnight grown bacterial cultures were diluted appropriately and inoculated on the agar media containing doubling dilutions of the test compounds. Observations for growth or no growth was performed after 16-20 hours of incubation at 35±2° C. in the ambient air. The overall procedure was performed as per Clinical and Laboratory Standards Institute (CLSI) recommendations, (Clinical and Laboratory Standards Institute (CLSI), Performance Standards for Antimicrobial Susceptibility Testing, 20th Informational Supplement, M07-A9, Volume 32, No. 2, 2012). Molten Mueller Hinton Agar (BD, USA) containing serial dilutions of each antibacterial agent were poured on to the plates and allowed to solidify. Appropriate suspensions from the freshly grown cultures were prepared in normal saline so that about 10^4 CFU/spot of the organism was delivered on to the drug containing agar plates using automated multipoint inoculator (Mast, UK). The plates were incubated in Biochemical oxygen demand (BOD) incubator at 37° C. for 18 hours and then examined for growth.
(§4) The strains selected for study included E. coli NCTC 13353 producing CTX-M15 and OXA-1 beta-lactamase enzymes; K. pneumoniae H521 producing KPC, SHV, TEM beta-lactamase enzymes; and K. pneumoniae S48 producing NDM, SHV, TEM beta-lactamase enzymes. The activities are expressed as Minimum Inhibitory Concentrations (MICs) (mcg/ml).

In assay [3] the test system is E. coli NCTC 13353 (CTX-M15, OXA-1). Described as above. As to conditions: Escherichia coli. Format: cell-based. The protocol: as §3
Table 2 details the antibacterial activity of representative compounds according to invention, against various Multi Drug Resistant (MDR) Gram-negative bacterial strains. The strains selected for study included E. coli NCTC 13353 producing CTX-M15 and OXA-1 beta-lactamase enzymes; K. pneumoniae H521 producing KPC, SHV, TEM beta-lactamase enzymes; and K. pneumoniae S48 producing NDM, SHV, TEM beta-lactamase enzymes. The activities are expressed as Minimum Inhibitory Concentrations (MICs) (mcg/ml).

Assay [4] concerns the target T2, Class A beta-lactamase, K. pneumoniae ATCC 700603 (SHV 18) (Klebsiella pneumoniae, UniProt P0AD64, E235K/G234A/R39S).
T2 construct: preincubated mixture of crude enzyme and the agents; endogenous in cells; host or cells: K. pneumoniae ATCC 700603
Briefly: biochemical. The method, then:
as §1, §2

The target of assay [5] is T3, Class D beta-lactamase, A. baumannii NCTC 13301 (OXA 23) (Acinetobacter baumannii, UniProt Q9L4P2).
T3 construct: preincubated mixture of crude enzyme and the agents; endogenous in cells; host or cells: A. baumannii NCTC 13301
T3 sequence (Q9L4P2 18-273): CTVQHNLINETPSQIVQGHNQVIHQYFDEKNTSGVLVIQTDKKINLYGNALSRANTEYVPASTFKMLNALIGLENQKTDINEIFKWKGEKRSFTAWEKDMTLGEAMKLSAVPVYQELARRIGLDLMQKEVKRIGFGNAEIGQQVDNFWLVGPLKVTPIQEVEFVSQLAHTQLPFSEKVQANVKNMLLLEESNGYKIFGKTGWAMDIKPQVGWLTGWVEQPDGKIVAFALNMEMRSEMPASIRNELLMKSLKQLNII
Kind of assay: Beta-lactamase enzyme inhibition (nitrocefin, crude enzyme). As to conditions: Class D A. baumannii NCTC 13301 (OXA 23); read-out: Beta-lactamase enzyme inhibition IC50. Format: biochemical. The method, then: as §1, §2

Assay [6] concerns K. pneumoniae H521 (KPC, SHV, TEM). Briefly: Antibacterial activity, MIC by agar dilution (CLSI). Format: cell-based. As to conditions: Klebsiella pneumoniae. The protocol:
as §3, §4

The mark [7] stands for this setting: Table 2, K. pneomoniae S48 (NDM, SHV, TEM), read-out: MIC.
The mark [8] stands for this setting: NCTC13353, Table 2, E. Coli NCTC 13353 (CTX-M15, OXA-1), read-out: MIC.
The mark [9] stands for this setting: Table 2, K. pneumoniae H521 (KPC, SHV, TEM), read-out: MIC.

T2 sequence (P0AD64 22-286 R39S/G234A/E235K): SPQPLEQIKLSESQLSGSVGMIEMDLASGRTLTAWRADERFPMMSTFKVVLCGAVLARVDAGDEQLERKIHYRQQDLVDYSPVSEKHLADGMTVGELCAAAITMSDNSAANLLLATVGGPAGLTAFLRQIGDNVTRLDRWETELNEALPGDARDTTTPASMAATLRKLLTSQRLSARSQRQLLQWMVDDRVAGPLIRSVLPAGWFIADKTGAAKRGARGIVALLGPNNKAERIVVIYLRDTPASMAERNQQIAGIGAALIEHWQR

`Nc1ccccc1CC(=O)NNC(=O)[C@@H]1CC[C@@H]2CN1C(=O)N2OS(=O)(=O)O` [Example 21, (2S,5R)-sulfuric acid mono-[2-(N′-(2-aminophenyl-acetyl)-hydrazinocarbonyl)-7-oxo-1,6-diaza-bicyclo[3.2.1]oct-6-yl]ester]: the results for the IC50 in assay [1], in assay [4] and in assay [5] were 0.034 µM, 0.035 µM and 4.51 µM, respectively. Besides, the MIC in assay [2], in assay [3] (NCTC13353) and in assay [6] was 16 µg/mL (≈ 38.7 µM) in each case.
As for `C[C@H](N)C(=O)Oc1ccc(CC(=O)NNC(=O)[C@@H]2CC[C@@H]3CN2C(=O)N3OS(=O)(=O)O)cc1` [Example 23, (S)-2-amino-propionic acid 4-{2-oxo-2-[N′-((2S,5R)-7-oxo-6-sulphooxy-1,6-diaza-bicyclo[3.2.1]octane-2-carbonyl)-hydrazino]ethyl}-phenyl ester], the IC50 in assay [1] came out at 0.023 µM; in assay [4], 0.003 µM; in assay [5], 0.24 µM. Moreover, the MIC in assay [2] (setting [7]) came out at 0.5 µg/mL (≈ 1.03 µM); in assay [3] (setting [8]) it was 0.5 µg/mL (≈ 1.03 µM); in assay [6] (setting [9]), 2 µg/mL (≈ 4.12 µM).
Turning to `O=C(Cc1ccc(OC(=O)[C@@H]2CCCN2)cc1)NNC(=O)[C@@H]1CC[C@@H]2CN1C(=O)N2OS(=O)(=O)O` [Example 25, (S)-pyrrolidine-2-carboxylic acid 4-{2-oxo-2-[N′-((2S,5R)-7-oxo-6-sulphooxy-1,6-diaza-bicyclo[3.2.1]octane-2-carbonyl)-hydrazino]ethyl}-phenyl ester], the figures for the concentration for half-maximal inhibition (IC50) in assay [1], in assay [4] and in assay [5] were 0.011 µM, 0.016 µM and 0.329 µM, respectively. Moreover, the figures for the MIC in assay [2] (setting [7]), in assay [3] (setting [8]) and in assay [6] (setting [9]) were 1 µg/mL (≈ 1.95 µM), 0.5 µg/mL (≈ 0.977 µM) and 1 µg/mL (≈ 1.95 µM), respectively.
In the case of `CC(C)[C@H](N)COc1ccccc1CC(=O)NNC(=O)[C@@H]1CC[C@@H]2CN1C(=O)N2OS(=O)(=O)O` [Example 50, (2S,5R)-sulfuric acid mono-[2-(N′-{2-[2-((S)-2-amino-3-methyl-butoxy)-phenyl]-acetyl}-hydrazinocarbonyl)-7-oxo-1,6-diaza-bicyclo[3.2.1]oct-6-yl]ester], the IC50 is 0.077 µM in assay [1], 0.079 µM in assay [4] and 1.17 µM in assay [5]. Further, the MIC was 16 µg/mL (≈ 32 µM) in assay [2] (setting [7]), 16 µg/mL (≈ 32 µM) in assay [3] (setting [8]) and greater than 32 µg/mL in assay [6] (setting [9]).
Consider `NCCCOc1ccccc1CC(=O)NNC(=O)[C@@H]1CC[C@@H]2CN1C(=O)N2OS(=O)(=O)O` [Example 34, (2S,5R)-sulfuric acid mono-[2-(N′-{2-[2-(3-amino-propoxy)-phenyl]-acetyl}-hydrazinocarbonyl)-7-oxo-1,6-diaza-bicyclo[3.2.1]oct-6-yl]ester], for which the figures for the IC50 in assay [1], in assay [4] and in assay [5] were 0.06 µM, 0.079 µM and 3.81 µM, respectively. Also, the MIC in assay [2] (setting [7]), in assay [3] (setting [8]) and in assay [6] (setting [9]) was 2 µg/mL (≈ 4.24 µM) throughout.
Consider `NCCOc1cccc(CC(=O)NNC(=O)[C@@H]2CC[C@@H]3CN2C(=O)N3OS(=O)(=O)O)c1` [Example 32, (2S,5R)-sulfuric acid mono-[2-(N′-{2-[3-(2-amino-ethoxy)-phenyl]-acetyl}-hydrazinocarbonyl)-7-oxo-1,6-diaza-bicyclo[3.2.1]oct-6-yl]ester], for which the IC50 in assay [1] was 0.033 µM; in assay [4] it was 0.076 µM; in assay [5] it was 1.77 µM. In addition, the minimal inhibitory concentration (MIC) in assay [2] (setting [7]), in assay [3] (setting [8]) and in assay [6] (setting [9]) was 0.5 µg/mL (≈ 1.09 µM) in each case.
`O=C(Cc1ccccc1O[C@H]1CCNC1)NNC(=O)[C@@H]1CC[C@@H]2CN1C(=O)N2OS(=O)(=O)O` [Example 63, (2S,5R)-sulfuric acid mono-[2-(N′-{2-[2-((S)-pyrrolidin-3-oxy)-phenyl]-acetyl}-hydrazinocarbonyl)-7-oxo-1,6-diaza-bicyclo[3.2.1]oct-6-yl]ester]: the 50% inhibitory concentration (IC50) in assay [1] was determined as 0.102 µM; in assay [4], 0.079 µM; in assay [5], 4.12 µM. Further, the MIC in assay [2] (setting [7]) came out at 2 µg/mL (≈ 4.14 µM); in assay [3] (setting [8]) it was 2 µg/mL (≈ 4.14 µM); in assay [6] (setting [9]), 8 µg/mL (≈ 16.5 µM).
For the molecule `O=C(Cc1ccccc1OC[C@@H]1CCCN1)NNC(=O)[C@@H]1CC[C@@H]2CN1C(=O)N2OS(=O)(=O)O` [Example 56, (2S,5R)-sulfuric acid mono-[2-(N′-{2-[2-((S)-pyrrolidin-2-ylmethoxy)-phenyl]-acetyl}-hydrazinocarbonyl)-7-oxo-1,6-diaza-bicyclo[3.2.1]oct-6-yl]ester], the IC50 in assay [1] came to 0.05 µM; in assay [4], 0.142 µM; in assay [5], 1.76 µM. Besides, the MIC in assay [2] (setting [7]) was determined as 16 µg/mL (≈ 32.2 µM); in assay [3] (setting [8]), 8 µg/mL (≈ 16.1 µM); in assay [6] (setting [9]), 16 µg/mL (≈ 32.2 µM).
For the molecule `C[C@H](N)COc1cccc(CC(=O)NNC(=O)[C@@H]2CC[C@@H]3CN2C(=O)N3OS(=O)(=O)O)c1` [Example 41, (2S,5R)-sulfuric acid mono-[2-(N′-{2-[3-((S)-2-amino-propoxy)-phenyl]-acetyl}-hydrazinocarbonyl)-7-oxo-1,6-diaza-bicyclo[3.2.1]oct-6-yl]ester], the IC50 was determined as 0.053 µM in assay [1], 0.038 µM in assay [4] and 0.99 µM in assay [5]. Also, the MIC in assay [2] (setting [7]) was 0.5 µg/mL (≈ 1.06 µM); in assay [3] (setting [8]) it was 0.5 µg/mL (≈ 1.06 µM); in assay [6] (setting [9]), 1 µg/mL (≈ 2.12 µM).
With `O=C(Cc1ccc(OC[C@@H]2CCCN2)cc1)NNC(=O)[C@@H]1CC[C@@H]2CN1C(=O)N2OS(=O)(=O)O` [Example 61, (2S,5R)-sulfuric acid mono-[2-(N′-{2-[4-((S)-pyrrolidin-2-ylmethoxy)-phenyl]-acetyl}-hydrazinocarbonyl)-7-oxo-1,6-diaza-bicyclo[3.2.1]oct-6-yl]ester], the IC50 in assay [1] is 0.029 µM; in assay [4], 0.071 µM; in assay [5], 0.69 µM. Besides, the MIC in assay [2] (setting [7]) stood at 1 µg/mL (≈ 2.01 µM); in assay [3] (setting [8]), 1 µg/mL (≈ 2.01 µM); in assay [6] (setting [9]), 2 µg/mL (≈ 4.02 µM).
Consider `CC(C)[C@@H](N)COc1ccc(CC(=O)NNC(=O)[C@@H]2CC[C@@H]3CN2C(=O)N3OS(=O)(=O)O)c(F)c1` [Example 46, (2S,5R)-sulfuric acid mono-[2-(N′-{2-[2-fluoro-4-((R)-2-amino-3-methyl-butoxy)-phenyl]-acetyl}-hydrazinocarbonyl)-7-oxo-1,6-diaza-bicyclo[3.2.1]oct-6-yl]ester], for which the IC50 was found to be 0.266 µM in assay [1], 0.079 µM in assay [4] and 4.1 µM in assay [5]. For the same molecule, the values for the minimal inhibitory concentration (MIC) in assay [2] (setting [7]), in assay [3] (setting [8]) and in assay [6] (setting [9]) were 4 µg/mL (≈ 7.73 µM), 2 µg/mL (≈ 3.86 µM) and 4 µg/mL (≈ 7.73 µM), respectively.
In the case of `Nc1ccc(CC(=O)NNC(=O)[C@@H]2CC[C@@H]3CN2C(=O)N3OS(=O)(=O)O)cc1` [Example 11, (2S,5R)-sulfuric acid mono-[2-(N′-(4-aminophenyl-acetyl)-hydrazinocarbonyl)-7-oxo-1,6-diaza-bicyclo[3.2.1]oct-6-yl]ester], the IC50 in assay [1] was found to be 0.01 µM; in assay [4] it was 0.032 µM; in assay [5], 0.408 µM. The MIC in assay [2] amounted to 1 µg/mL (≈ 2.42 µM); in assay [3] (NCTC13353), 0.5 µg/mL (≈ 1.21 µM); in assay [6], 1 µg/mL (≈ 2.42 µM).
In the case of `C[C@@H](N)COc1ccc(CC(=O)NNC(=O)[C@@H]2CC[C@@H]3CN2C(=O)N3OS(=O)(=O)O)cc1` [Example 49, (2S,5R)-sulfuric acid mono-[2-(N′-{2-[4-((R)-2-amino-propoxy)-phenyl]-acetyl}-hydrazinocarbonyl)-7-oxo-1,6-diaza-bicyclo[3.2.1]oct-6-yl]ester], the concentration for half-maximal inhibition (IC50) in assay [1] came to 0.047 µM; in assay [4] it was 0.112 µM; in assay [5] it was 0.542 µM. Further, the MIC is 0.5 µg/mL (≈ 1.06 µM) in assay [2] (setting [7]), 0.5 µg/mL (≈ 1.06 µM) in assay [3] (setting [8]) and 1 µg/mL (≈ 2.12 µM) in assay [6] (setting [9]).
